Laboratory results published in the NIST ThermoML archive (doi:10.1016/j.jct.2015.02.011).

Assay: xn = mol fraction of the nth substance listed
Conditions: 100.7 kPa, Liquid; for speed of sound: Frequency=3 MHz, Sing-around technique in a fixed-path interferometer; for mass density: Vibrating tube method

CCCCCCCC[n+]1ccn(C)c1.F[P-](F)(F)(F)(F)F [1-octyl-3-methylimidazolium hexafluorophosphate] + C1CCOC1
Conditions	mass density, 293.15 K [kg/m3]	mass density, 298.15 K [kg/m3]	mass density, 303.15 K [kg/m3]	speed of sound, 293.15 K [m/s]	speed of sound, 298.15 K [m/s]	speed of sound, 303.15 K [m/s]	speed of sound, 308.15 K [m/s]
x1 = 0.0767	972.545	967.476	962.388	1319.1	1297.5	1276.5	1254.8
x1 = 0.1791	1048.06	1043.39	1038.59	1338.4	1320.2	1302.6	1283.4
x1 = 0.2783	1097.51	1092.94	1088.35	1356	1339.2	1322.5	1304.2
x1 = 0.3996	1139.52	1135.15	1130.86	1371.5	1355.5	1340.1	1323.2
x1 = 0.5198	1169.49	1165.32	1161.03	1384.1	1368.6	1353.2	1338.3
x1 = 0.612	1187.49	1183.35	1179.13	1392.2	1376.8	1361.9	1347.8
x1 = 0.6957	1201.25	1197.12	1193.04	1399	1383.9	1369.2	1355.3
x1 = 0.7754	1212.53	1208.52	1204.52	1405.2	1390.5	1376.1	1362.2
x1 = 0.8991	1227.92	1223.83	1219.78	1414	1399.8	1385.8	1371.3
x1 = 1	1238.77	1234.79	1230.84	1421.2	1406.5	1392.4	1379
